Experimental data published in patent publication US20250312469A1 (CANGET BIOTEKPHARMA, priority 2024, published 2025).
pKd: −log10 of the molar value.

Tests used:
ABCG2/BCRP = target: T1, ABCG2/BCRP (Homo sapiens, UniProt Q9UNQ0); experiment: ABCG2/BCRP inhibition (BCRP-MDCK, cladribine)
T1 sequence (Q9UNQ0 1-655): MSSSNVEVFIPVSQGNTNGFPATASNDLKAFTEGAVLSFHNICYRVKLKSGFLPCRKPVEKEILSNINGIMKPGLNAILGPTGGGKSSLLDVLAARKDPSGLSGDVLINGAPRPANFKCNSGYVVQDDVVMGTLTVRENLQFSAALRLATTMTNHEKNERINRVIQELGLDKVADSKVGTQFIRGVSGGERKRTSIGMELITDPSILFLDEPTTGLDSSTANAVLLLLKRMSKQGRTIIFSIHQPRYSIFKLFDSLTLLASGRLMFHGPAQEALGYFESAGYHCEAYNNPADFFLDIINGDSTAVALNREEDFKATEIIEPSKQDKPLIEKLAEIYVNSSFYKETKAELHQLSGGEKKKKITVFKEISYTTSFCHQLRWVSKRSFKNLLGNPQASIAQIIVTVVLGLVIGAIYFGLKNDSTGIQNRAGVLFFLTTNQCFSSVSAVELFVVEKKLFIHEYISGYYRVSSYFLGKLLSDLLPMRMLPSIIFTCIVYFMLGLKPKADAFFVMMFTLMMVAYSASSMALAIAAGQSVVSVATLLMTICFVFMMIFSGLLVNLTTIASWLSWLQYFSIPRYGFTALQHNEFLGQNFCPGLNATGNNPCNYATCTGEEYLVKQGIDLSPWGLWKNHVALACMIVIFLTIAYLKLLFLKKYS
Procedure: After 30 minutes the buffer was removed, replaced with fresh dosing solution/assay buffer, and time was recorded as 0. […] Each determination was performed in duplicate. […] Analytical conditions are outlined in Appendix 1.

USP2a = target: T2, USP2a (Homo sapiens, UniProt O75604); experiment: ITC, Flag-USP2a; type: binding; set-up: host or cells: HEK293T
T2 sequence (O75604 1-605): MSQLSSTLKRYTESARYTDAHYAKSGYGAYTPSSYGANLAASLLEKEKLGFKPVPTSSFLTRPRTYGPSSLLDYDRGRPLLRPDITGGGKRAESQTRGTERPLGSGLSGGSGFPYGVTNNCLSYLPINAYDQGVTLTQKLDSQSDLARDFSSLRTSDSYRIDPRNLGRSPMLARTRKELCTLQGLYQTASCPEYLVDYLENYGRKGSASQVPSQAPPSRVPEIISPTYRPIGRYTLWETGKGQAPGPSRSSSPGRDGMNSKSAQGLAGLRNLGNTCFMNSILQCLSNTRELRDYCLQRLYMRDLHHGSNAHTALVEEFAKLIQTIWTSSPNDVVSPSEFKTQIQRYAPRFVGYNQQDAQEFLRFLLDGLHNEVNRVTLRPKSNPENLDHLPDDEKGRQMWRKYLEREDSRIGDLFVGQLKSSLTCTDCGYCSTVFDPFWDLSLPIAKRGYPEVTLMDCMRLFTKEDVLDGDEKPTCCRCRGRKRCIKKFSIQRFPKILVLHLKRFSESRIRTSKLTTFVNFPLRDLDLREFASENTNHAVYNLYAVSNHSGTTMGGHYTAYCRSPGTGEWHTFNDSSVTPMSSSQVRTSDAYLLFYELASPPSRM
Excerpt: Purification of Flag-tagged DDX5 (Flag-DDX5), USP2a (Flag-USP2), UbE2T (Flag-(bE2T) and topoisomerase 1 (Top1) (Flag-Top1) proteins: Flag-DDX5, Flag-USP2, Flag-UbE2T and Flag-Topl proteins were purified from the protein expression vector-transfected HEK293T cells by using the FLAG® M Purification Kit for mammalian expression systems (CELLMM2-IKT, Sigma). Briefly, sub-confluent populations of HEK293T cells were transfected with expression vectors for Flag-DDX5, Flag-USP2, Flag-UbE2T and Flag-Top1 (OriGene) using Lipofectamine 2000 (Invitrogen) as per the manufacturer's instructions. After 72h of transfection, cells were lysed in Cell Lytic M lysis reagent (Sigma Cat #C2978) containing a protease inhibitor cocktail. […]
Replacement of the Tris-HCl buffer with the PBS buffer for purified proteins for drug-protein binding analyses using isothermal titration calorimetry (ITC): After the purified proteins were eluted from the agarose resin with 3×flag peptide, the same purified protein samples from different batches were combined. […] The PBS-resuspended protein samples were recovered from the reservoir and the protein concentrations were determined using the nano-drop reader (Bio-Rad) and BCA Protein Assay (Thermo/Pierce) for double-making sure the concentration. […]

With `CCC1(O)C(=O)OCc2c1cc1n(c2=O)Cc2cc3cc4c(cc3nc2-1)OCO4` (centres unmarked) [FL118] the whole blood partitioning (Blood partitioning; 1 μM) was “favorable whole blood partitioning results”, the “RBC to Plasma Partitioning (KRBC/P)” value (Blood partitioning; human whole blood) was 1.04 and the “inhibition of BCRP transport of cladribine” value (ABCG2/BCRP; 1.0 μM FL118) was “does not inhibit cladribine acting as a BCRP substrate”. For the same molecule, the “BCRP Inhibition Potential Classification” value (ABCG2/BCRP; BCRP-MDCK, cladribine as substrate, 1.0 μM FL118 or 0.5 μM Ko143) was “Negative (without inhibitor, and reduced by <50 with inhibitor: Negative)” and the pKd (USP2a) was 7.28.
